Reference: patent US10428082B2, “Triazole derivatives of melampomagnolide B and methods of use thereof” (BioVentures, LLC, priority 2016, dated 2019)
pEC50: −log10 of the molar value. Where two headings read alike, the source gives them in different places.

Columns and labels:
M9 ENL1 cell line = assay: Anti-leukemic activity, Annexin V/7-AAD flow cytometry; assay type: cell-based; settings: for pEC50: 24 h of drug exposure, read-out: M9ENL1 (EC50)
Experimental: The newly synthesized triazole derivatives of melampomagnolide B were screened for anti-leukemic activity against M9 ENL1 and primary AML cell lines; the latter were obtained with informed consent from human patients. Evaluations were performed after 24 h of drug exposure using flow cytometric analysis by labeling with Annexin V and 7-aminoactinomycin D (7-AAD) to delineate apoptotic cell populations. In all experiments PTL was included as a reference control.

NCI-H460 = assay: NCI 60 growth inhibition; assay type: cell-based, human; settings: NCI-H460, Non-Small Cell Lung Cancer, Table 2
Experimental: (§1) The above triazole derivatives of melampomagnolide B were evaluated for growth inhibitory properties against an NCI panel of 60 human cancer cell lines derived from nine human cancer cell types, grouped into disease sub-panels that represent leukemia, lung, colon, central nervous system (CNS), melanoma, renal, ovary, breast, and prostate cancer cells. Growth inhibitory (GI50) effects were measured as a function of the variation of optical density as a percentage of control.

EKVX = assay: NCI 60 growth inhibition; assay type: cell-based, human; settings: Non-Small Cell Lung Cancer, Table 2
Experimental: as §1

U251 = assay: NCI 60 growth inhibition; assay type: cell-based, human; settings: U251, CNS Cancer, Table 2
Experimental: as §1

RPMI-8226 = assay: NCI 60 growth inhibition; assay type: cell-based, human; settings: RPMI-8226, Leukemia, Table 2
Experimental: as §1

COLO 205 = assay: NCI 60 growth inhibition; assay type: cell-based, human; settings: COLO 205, Colon Cancer, Table 2
Experimental: as §1

786-0 = assay: NCI 60 growth inhibition; assay type: cell-based, human; settings: 786-0, Renal Cancer, Table 2
Experimental: as §1

SK-MEL-28 = assay: NCI 60 growth inhibition; assay type: cell-based, human; settings: SK-MEL-28, Melanoma, Table 2
Experimental: as §1

UO-31 = assay: NCI 60 growth inhibition; assay type: cell-based, human; settings: UO-31, Renal Cancer, Table 2
Experimental: as §1

UACC-62 = assay: NCI 60 growth inhibition; assay type: cell-based, human; settings: UACC-62, Melanoma, Table 2
Experimental: as §1

HL-60(TB) = assay: NCI 60 growth inhibition; assay type: cell-based, human; settings: HL-60(TB), Leukemia, Table 2
Experimental: as §1

MCF7 = assay: NCI 60 growth inhibition; assay type: cell-based, human; settings: MCF7, Breast Cancer, Table 2
Experimental: as §1

T-47D = assay: NCI 60 growth inhibition; assay type: cell-based, human; settings: Breast Cancer, Table 2
Experimental: as §1

K-562 = assay: NCI 60 growth inhibition; assay type: cell-based, human; settings: K-562, Leukemia, Table 2
Experimental: as §1

ACHN = assay: NCI 60 growth inhibition; assay type: cell-based, human; settings: Renal Cancer, Table 2
Experimental: as §1

HOP-92 = assay: NCI 60 growth inhibition; assay type: cell-based, human; settings: HOP-92, Non-Small Cell Lung Cancer, Table 2
Experimental: as §1

HS 578T = assay: NCI 60 growth inhibition; assay type: cell-based, human; settings: Breast Cancer, Table 2
Experimental: as §1

OVCAR-3 = assay: NCI 60 growth inhibition; assay type: cell-based, human; settings: OVCAR-3, Ovarian Cancer, Table 2
Experimental: as §1

DU-145 = assay: NCI 60 growth inhibition; assay type: cell-based, human; settings: DU-145, Prostate Cancer, Table 2
Experimental: as §1

MDA-MB-435 = assay: NCI 60 growth inhibition; assay type: cell-based, human; settings: MDA-MB-435, Melanoma, Table 2
Experimental: as §1

OVCAR-4 = assay: NCI 60 growth inhibition; assay type: cell-based, human; settings: OVCAR-4, Ovarian Cancer, Table 2
Experimental: as §1

NCI-H23 = assay: NCI 60 growth inhibition; assay type: cell-based, human; settings: NCI-H23, Non-Small Cell Lung Cancer, Table 2
Experimental: as §1

RXF 393 = assay: NCI 60 growth inhibition; assay type: cell-based, human
Experimental: as §1

SK-OV-3 = assay: NCI 60 growth inhibition; assay type: cell-based, human; settings: SK-OV-3, Ovarian Cancer, Table 2
Experimental: as §1

A498 = assay: NCI 60 growth inhibition; assay type: cell-based, human; settings: A498, Renal Cancer, Table 2
Experimental: as §1

HT29 = assay: NCI 60 growth inhibition; assay type: cell-based, human; settings: HT-29, Colon Cancer, Table 2
Experimental: as §1

NCI-H226 = assay: NCI 60 growth inhibition; assay type: cell-based, human; settings: NCI-H226, Non-Small Cell Lung Cancer, Table 2
Experimental: as §1

MDA-MB-231/ATCC = assay: NCI 60 growth inhibition; assay type: cell-based, human; settings: Breast Cancer, Table 2
Experimental: as §1

A549/ATCC = assay: NCI 60 growth inhibition; assay type: cell-based, human; settings: Non-Small Cell Lung Cancer, Table 2
Experimental: as §1

SF-295 = assay: NCI 60 growth inhibition; assay type: cell-based, human; settings: SF-295, CNS Cancer, Table 2
Experimental: as §1

M14 = assay: NCI 60 growth inhibition; assay type: cell-based, human; settings: M14, Melanoma, Table 2
Experimental: as §1

IGROV1 = assay: NCI 60 growth inhibition; assay type: cell-based, human; settings: IGROV1, Ovarian Cancer, Table 2
Experimental: as §1

NCI-H522 = assay: NCI 60 growth inhibition; assay type: cell-based, human; settings: NCI-H522, Non-Small Cell Lung Cancer, Table 2
Experimental: as §1

HOP-62 = assay: NCI 60 growth inhibition; assay type: cell-based, human; settings: HOP-62, Non-Small Cell Lung Cancer, Table 2
Experimental: as §1

BT-549 = assay: NCI 60 growth inhibition; assay type: cell-based, human; settings: BT-549, Breast Cancer, Table 2
Experimental: as §1

[1] = tested on: NCI panel of 60 human cancer cell lines; assay: NCI 60 growth inhibition, ranges over groups of cell lines; assay type: cell-based
Experimental: as §1

CAKI-1 = assay: NCI 60 growth inhibition; assay type: cell-based, human; settings: CAKI-1, Renal Cancer, Table 2
Experimental: as §1

[2] = Homo sapiens, RXF 393, RXF 393, Renal Cancer, Table 2
[3] = most of the solid tumor cell lines in the panel, read-out: GI50

C=C1C(=O)O[C@H]2[C@H]1CC/C(Cn1cc(-c3cc(C(F)(F)F)cc(C(F)(F)F)c3)nn1)=C\CC[C@@]1(C)O[C@@H]21 [JVM 4-29, (1aR,7aS,10aS,10bS,E)-5-((4-(3,5-bis(Trifluoromethyl)phenyl)-1H-1,2,3-triazol-1-yl)methyl)-1a-methyl-8-methylene-2,3,6,7,7a,8,10a,10b-octahydrooxireno[2′,3′:9,10]cyclodeca[1,2-b]furan-9(1aH)-one]
pEC50 (M9 ENL1 cell line; M9-ENL1, 24 h): 6.22 | cytotoxicity compared with parthenolide (M9 ENL1 cell line; M9 ENL1 cell assay): more cytotoxic than parthenolide | fold more potent than parthenolide (PTL) (M9 ENL1 cell line; M9 ENL1 cells): 8.6 fold | GI50 (NCI-H460; Homo sapiens): 1220 nM | GI50 (EKVX; Homo sapiens): 1500 nM | GI50 (U251; Homo sapiens, U-251): 1440 nM | GI50 (RPMI-8226; Homo sapiens): 220 nM | GI50 (COLO 205; Homo sapiens): 140 nM | GI50 (786-0; Homo sapiens): 160 nM | GI50 (SK-MEL-28; Homo sapiens): 460 nM | GI50 (UO-31; Homo sapiens): 380 nM | GI50 (UACC-62; Homo sapiens): 340 nM | GI50 (HL-60(TB); Homo sapiens): 190 nM | GI50 (MCF7; Homo sapiens): 190 nM | GI50 (T-47D; Homo sapiens, T47D): 330 nM | GI50 (K-562; Homo sapiens, K562): 230 nM | GI50 (ACHN; Homo sapiens): 160 nM | GI50 (HOP-92; Homo sapiens): 340 nM | GI50 (HS 578T; Homo sapiens): 1030 nM | GI50 (OVCAR-3; Homo sapiens): 150 nM | GI50 (DU-145; Homo sapiens): 720 nM | GI50 (MDA-MB-435; Homo sapiens): 740 nM | GI50 (OVCAR-4; Homo sapiens): 500 nM | GI50 (NCI-H23; Homo sapiens): 1120 nM | GI50 (RXF 393; [2]): 20 nM | GI50 (RXF 393; Homo sapiens, RXF 393, RXF 393 renal cancer cell line): 27 nM | GI50 (SK-OV-3; Homo sapiens): 1860 nM | GI50 (A498; Homo sapiens): 430 nM | GI50 (HT29; Homo sapiens): 190 nM | GI50 (NCI-H226; Homo sapiens): 1650 nM | GI50 (MDA-MB-231/ATCC; Homo sapiens): 330 nM | GI50 (A549/ATCC; Homo sapiens): 1360 nM | GI50 (SF-295; Homo sapiens): 1190 nM | GI50 (M14; Homo sapiens): 350 nM | GI50 (IGROV1; Homo sapiens, IGROV-1): 840 nM | GI50 (NCI-H522; Homo sapiens): 120 nM | GI50 (HOP-62; Homo sapiens): 1560 nM | GI50 (BT-549; Homo sapiens): 170 nM | GI50 ([1]; all the cell lines in the leukemia sub-panel, read-out: GI50): 100 to 500 nM | GI50 [1, 3]: 120 to 880 nM

C=C1C(=O)O[C@H]2[C@H]1CC/C(Cn1cc(-c3cc(C)c(C)cc3C)nn1)=C\CC[C@@]1(C)O[C@@H]21 [JVM 4-50]
pEC50 (M9 ENL1 cell line): 5.01 | GI50 (NCI-H460): 3160 nM | GI50 (EKVX): 1220 nM | GI50 (U251): 1530 nM | GI50 (RPMI-8226): 1180 nM | GI50 (COLO 205): 640 nM | GI50 (786-0): 1500 nM | GI50 (SK-MEL-28): 1400 nM | GI50 (UO-31): 520 nM | GI50 (UACC-62): 1130 nM | GI50 (HL-60(TB)): 640 nM | GI50 (MCF7): 430 nM | GI50 (T-47D): 530 nM | GI50 (K-562): 1390 nM | GI50 (ACHN): 1070 nM | GI50 (HOP-92): 430 nM | GI50 (HS 578T): 1940 nM | GI50 (OVCAR-3): 1030 nM | GI50 (DU-145): 1350 nM | GI50 (MDA-MB-435): 1410 nM | GI50 (OVCAR-4): 700 nM | GI50 (NCI-H23): 1770 nM | GI50 (RXF 393; RXF 393, Renal Cancer, Table 2): 960 nM | GI50 (SK-OV-3): 11700 nM | GI50 (A498): 1040 nM | GI50 (HT29): 500 nM | GI50 (CAKI-1): 1080 nM | GI50 (NCI-H226): 1460 nM | GI50 (MDA-MB-231/ATCC): 1110 nM | GI50 (A549/ATCC): 1730 nM | GI50 (SF-295): 6440 nM | GI50 (M14): 1500 nM | GI50 (IGROV1): 1290 nM | GI50 (NCI-H522): 280 nM | GI50 (HOP-62): 1770 nM | GI50 (BT-549): 750 nM

C=C1C(=O)O[C@H]2[C@H]1CC/C(Cn1cc(-c3ccc(F)cc3)nn1)=C\CC[C@@]1(C)O[C@@H]21 [JVM 4-26]
GI50 (NCI-H460; Homo sapiens): 3660 nM | GI50 (EKVX; Homo sapiens): 1490 nM | GI50 (U251; Homo sapiens, U-251): 2020 nM | GI50 (RPMI-8226; Homo sapiens): 1410 nM | GI50 (COLO 205; Homo sapiens): 450 nM | GI50 (786-0; Homo sapiens): 1060 nM | GI50 (SK-MEL-28; Homo sapiens): 820 nM | GI50 (UO-31; Homo sapiens): 1220 nM | GI50 (UACC-62; Homo sapiens): 1260 nM | GI50 (HL-60(TB); Homo sapiens): 720 nM | GI50 (MCF7; Homo sapiens): 350 nM | GI50 (T-47D; Homo sapiens, T47D): 740 nM | GI50 (K-562; Homo sapiens, K562): 940 nM | GI50 (ACHN; Homo sapiens): 180 nM | GI50 (HOP-92; Homo sapiens): 340 nM | GI50 (HS 578T; Homo sapiens): 3680 nM | GI50 (OVCAR-3; Homo sapiens): 490 nM | GI50 (DU-145; Homo sapiens): 690 nM | GI50 (MDA-MB-435; Homo sapiens): 1000 nM | GI50 (OVCAR-4; Homo sapiens): 1290 nM | GI50 (NCI-H23; Homo sapiens): 1780 nM | GI50 (RXF 393; [2]): 870 nM | GI50 (SK-OV-3; Homo sapiens): 9780 nM | GI50 (A498; Homo sapiens): 1820 nM | GI50 (HT29; Homo sapiens): 690 nM | GI50 (CAKI-1; Homo sapiens): 1030 nM | GI50 (NCI-H226; Homo sapiens): 2480 nM | GI50 (MDA-MB-231/ATCC; Homo sapiens): 1220 nM | GI50 (A549/ATCC; Homo sapiens): 3370 nM | GI50 (SF-295; Homo sapiens): 5730 nM | GI50 (M14; Homo sapiens): 940 nM | GI50 (IGROV1; Homo sapiens, IGROV-1): 1170 nM | GI50 (NCI-H522; Homo sapiens): 250 nM | GI50 (HOP-62; Homo sapiens): 3040 nM | GI50 (BT-549; Homo sapiens): 830 nM | GI50 ([1]; leukemia cell lines CCRF-CEM, HL-60(TB), K-562, MOLT-4 and SR, read-out: growth inhibition values): 240 to 940 nM | GI50 [1, 3]: 180 to 940 nM
